Results reported in publication PMC10004634 (PLOS ONE, 2023).

Legend:
PKNB(M.tuberculosis) = PKNB(M.tuberculosis) (Mycobacterium tuberculosis, UniProt P9WI81); test: biochemical; conditions: read-out: Percent control / Ibrutinib
[1] = tested on: BT system (B cells, peripheral blood mononuclear cells); test: BioMAP Diversity PLUS profiling, BT system; type: cell-based, human; conditions: 120, 370, 1100, 3300 nM
Description: In brief, cultures with one or more primary cell types from healthy human donors were treated with sets of stimulators specific to the cell subsets, and the optimized biomarker readouts for each system were measured by ELISA and other techniques, as listed in S1 Table. The assays included positive and negative controls as well as vehicle control. Results are presented as the log-transformed ratio of biomarker readouts for tirabrutinib-treated samples to vehicle controls.

TMD8 cells = test: SILAC phosphoproteomic analysis
Description: For differential SILAC encoding, both cells were grown in arginine- and lysine-deficient culture medium containing light (Arg0/Lys0) or heavy (Arg10/Lys8) isotopic forms of L-arginine and L-lysine (SILAC medium). […] For mass spectrometric analysis, phosphopeptide-enriched samples were loaded onto a reversed phase analytical column, resolved by an acetonitrile gradient using a nanoflow HPLC system and directly electrosprayed via a nanoelectrospray ion source into an LTQ-Orbitrap Velos mass spectrometer (Thermo Fisher Scientific). […] A false discovery rate (FDR) of 0.01 was selected for protein and peptide identification, and a posterior error probability of ≤0.1 for each peptide-to-spectral match was required. The resulting list of phosphosites exported from the MaxQuant software was filtered for class-I sites (only serine, threonine, or tyrosine assignments with a localization probability of ≥0.75) [33] and used for all subsequent biostatistical analysis. […] Gaussian regression analysis on the histogram plot of these log2-transformed ratios was performed using Sigmaplot (version 10.0; Systat Software Inc.). The obtained values for the mean and standard deviation across the whole quantitative dataset were used to determine thresholds for significant regulation of at least ±2.5 σ. […] Furthermore, only phosphosites conforming to this criterion and showing consistent regulation in both biological replicates were considered as regulated.

PFPK5(P.falciparum) = target: T1, PFPK5(P.falciparum) (Plasmodium falciparum, UniProt P61075); test: biochemical; conditions: read-out: Percent control / Zanubrutinib
T1 construct: gene MAL13P1.279
T1 sequence (P61075 whole entry): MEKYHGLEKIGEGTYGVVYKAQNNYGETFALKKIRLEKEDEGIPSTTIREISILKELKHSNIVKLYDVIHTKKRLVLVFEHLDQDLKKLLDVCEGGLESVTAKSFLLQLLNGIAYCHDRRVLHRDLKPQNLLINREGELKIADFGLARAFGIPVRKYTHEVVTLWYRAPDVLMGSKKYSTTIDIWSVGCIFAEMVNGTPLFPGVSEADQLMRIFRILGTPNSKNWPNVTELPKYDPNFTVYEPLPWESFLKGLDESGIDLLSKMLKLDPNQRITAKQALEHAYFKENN

Chain of PKNB(M.tuberculosis) (P9WI81 whole entry, looked up): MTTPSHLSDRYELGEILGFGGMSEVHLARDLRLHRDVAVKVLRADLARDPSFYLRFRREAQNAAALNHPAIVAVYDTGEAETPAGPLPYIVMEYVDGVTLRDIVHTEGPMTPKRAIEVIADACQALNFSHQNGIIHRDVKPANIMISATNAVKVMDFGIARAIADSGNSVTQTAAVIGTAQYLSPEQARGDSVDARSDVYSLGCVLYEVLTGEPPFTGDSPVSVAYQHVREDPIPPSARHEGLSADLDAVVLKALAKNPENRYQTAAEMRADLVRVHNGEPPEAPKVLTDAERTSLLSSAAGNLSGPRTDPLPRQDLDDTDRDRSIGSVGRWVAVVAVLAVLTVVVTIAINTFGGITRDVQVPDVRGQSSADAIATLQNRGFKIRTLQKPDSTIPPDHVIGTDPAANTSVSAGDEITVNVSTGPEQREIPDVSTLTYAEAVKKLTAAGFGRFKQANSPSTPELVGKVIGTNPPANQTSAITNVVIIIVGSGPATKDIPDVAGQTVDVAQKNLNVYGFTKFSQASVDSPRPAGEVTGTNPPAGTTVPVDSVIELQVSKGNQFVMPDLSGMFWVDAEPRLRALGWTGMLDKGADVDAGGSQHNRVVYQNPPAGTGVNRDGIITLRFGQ

## C=CC(=O)N1CCC[C@@H](n2nc(-c3ccc(Oc4ccccc4)cc3)c3c(N)ncnc32)C1 [Ibrutinib]
PKNB(M.tuberculosis)
  remaining activity at 0.3 µM: 93%

## CC#CC(=O)N1CC[C@@H](n2c(=O)n(-c3ccc(Oc4ccccc4)cc3)c3c(N)ncnc32)C1 [Tirabrutinib]
[1]
  effect on the BT system (B-cell growth, production of IgG, IL-6, IL-17A, TNFα): concentration-dependent inhibitory effect
TMD8 cells; 1 μM, 1 h
  reduction of ATF2 phosphorylation on Thr-69: approximately 50%
  reduction of ATF2 phosphorylation on Thr-71: approximately 50%
TMD8 cells; 1 μM, 1 h, ratio <0.679
  number of downregulated phosphorylation sites: 138
TMD8 cells; 1 μM, 1 h, ratio >1.472
  number of upregulated phosphorylation sites: 15
TMD8 cells; AKT1S1 S183
  Tirabrutinib/ctrl. rep. 1: 0.69
  Tirabrutinib/ctrl. rep. 2: 0.65
TMD8 cells; AKT1S1 S202
  Tirabrutinib/ctrl. rep. 1: 1.29
  Tirabrutinib/ctrl. rep. 2: 1.18
TMD8 cells; AKT1S1 S203
  Tirabrutinib/ctrl. rep. 1: 1.16
  Tirabrutinib/ctrl. rep. 2: 1.11
TMD8 cells; AKT1S1 S211
  Tirabrutinib/ctrl. rep. 1: 0.98
  Tirabrutinib/ctrl. rep. 2: 0.82
TMD8 cells; AKT1S1 T246
  Regulation of Phosphorylation Site: ↓
  Tirabrutinib/ctrl. rep. 1: 0.61
  Tirabrutinib/ctrl. rep. 2: 0.51
TMD8 cells; AKT1 S124
  Tirabrutinib/ctrl. rep. 1: 0.97
  Tirabrutinib/ctrl. rep. 2: 1.01
TMD8 cells; AKT1 S129
  Tirabrutinib/ctrl. rep. 1: 1.07
  Tirabrutinib/ctrl. rep. 2: 0.94
TMD8 cells; AKT2 S126
  Tirabrutinib/ctrl. rep. 1: 0.95
  Tirabrutinib/ctrl. rep. 2: 0.95
TMD8 cells; AKT2 T451
  Tirabrutinib/ctrl. rep. 1: 1.00
  Tirabrutinib/ctrl. rep. 2: 0.94
TMD8 cells; ATF2 S112
  Tirabrutinib/ctrl. rep. 1: 1.07
  Tirabrutinib/ctrl. rep. 2: 0.83
TMD8 cells; ATF2 T69
  Regulation of Phosphorylation Site: ↓
  Tirabrutinib/ctrl. rep. 1: 0.53
  Tirabrutinib/ctrl. rep. 2: 0.53
TMD8 cells; ATF2 T71
  Regulation of Phosphorylation Site: ↓
  Tirabrutinib/ctrl. rep. 1: 0.50
  Tirabrutinib/ctrl. rep. 2: 0.53
TMD8 cells; CARD11 S483
  Tirabrutinib/ctrl. rep. 1: 0.72
  Tirabrutinib/ctrl. rep. 2: 1.26
TMD8 cells; CARD11 S529
  Tirabrutinib/ctrl. rep. 1: 0.89
  Tirabrutinib/ctrl. rep. 2: 0.90
TMD8 cells; CARD11 S554
  Tirabrutinib/ctrl. rep. 2: 0.79
TMD8 cells; CARD11 S610
  Tirabrutinib/ctrl. rep. 1: 0.99
  Tirabrutinib/ctrl. rep. 2: 0.96
TMD8 cells; CARD11 S622
  Tirabrutinib/ctrl. rep. 1: 1.01
  Tirabrutinib/ctrl. rep. 2: 1.05
TMD8 cells; CARD11 S903
  Tirabrutinib/ctrl. rep. 1: 1.34
  Tirabrutinib/ctrl. rep. 2: 1.37
TMD8 cells; CARD11 S942
  Tirabrutinib/ctrl. rep. 1: 0.92
  Tirabrutinib/ctrl. rep. 2: 0.78
TMD8 cells; ELK1 S501
  Regulation of Phosphorylation Site: ↓
  Tirabrutinib/ctrl. rep. 1: 0.33
  Tirabrutinib/ctrl. rep. 2: 0.48
TMD8 cells; ERF S327
  Regulation of Phosphorylation Site: ↓
  Tirabrutinib/ctrl. rep. 1: 0.59
  Tirabrutinib/ctrl. rep. 2: 0.50
TMD8 cells; ERF T526
  Tirabrutinib/ctrl. rep. 1: 0.85
  Tirabrutinib/ctrl. rep. 2: 0.87
TMD8 cells; ETV3 S245
  Regulation of Phosphorylation Site: ↓
  Tirabrutinib/ctrl. rep. 1: 0.30
  Tirabrutinib/ctrl. rep. 2: 0.28
TMD8 cells; ETV3 S250
  Regulation of Phosphorylation Site: ↓
  Tirabrutinib/ctrl. rep. 1: 0.30
  Tirabrutinib/ctrl. rep. 2: 0.28
TMD8 cells; HSP27 S15
  Tirabrutinib/ctrl. rep. 1: 0.59
  Tirabrutinib/ctrl. rep. 2: 1.31
TMD8 cells; HSP27 S78
  Tirabrutinib/ctrl. rep. 1: 0.67
  Tirabrutinib/ctrl. rep. 2: 0.69
TMD8 cells; HSP27 S82
  Regulation of Phosphorylation Site: ↓
  Tirabrutinib/ctrl. rep. 1: 0.62
  Tirabrutinib/ctrl. rep. 2: 0.60
TMD8 cells; IKBKG S455
  Tirabrutinib/ctrl. rep. 1: 1.17
  Tirabrutinib/ctrl. rep. 2: 0.97
TMD8 cells; MAPK1 Y187
  Regulation of Phosphorylation Site: ↓
  Tirabrutinib/ctrl. rep. 1: 0.34
  Tirabrutinib/ctrl. rep. 2: 0.47
TMD8 cells; MAPK3 Y204
  Regulation of Phosphorylation Site: ↓
  Tirabrutinib/ctrl. rep. 1: 0.26
  Tirabrutinib/ctrl. rep. 2: 0.42
TMD8 cells; NHE1 S693
  Tirabrutinib/ctrl. rep. 1: 1.21
  Tirabrutinib/ctrl. rep. 2: 1.00
TMD8 cells; NHE1 S703
  Regulation of Phosphorylation Site: ↓
  Tirabrutinib/ctrl. rep. 1: 0.55
  Tirabrutinib/ctrl. rep. 2: 0.51
TMD8 cells; NHE1 S785
  Tirabrutinib/ctrl. rep. 1: 1.11
  Tirabrutinib/ctrl. rep. 2: 1.29
TMD8 cells; NHE1 S796
  Tirabrutinib/ctrl. rep. 1: 0.62
  Tirabrutinib/ctrl. rep. 2: 0.78
TMD8 cells; PEA15 S82
  Tirabrutinib/ctrl. rep. 1: 0.88
  Tirabrutinib/ctrl. rep. 2: 0.96
TMD8 cells; PEA15 S137
  Regulation of Phosphorylation Site: ↓
  Tirabrutinib/ctrl. rep. 1: 0.35
  Tirabrutinib/ctrl. rep. 2: 0.29
TMD8 cells; PIK3AP1 S642
  Tirabrutinib/ctrl. rep. 1: 0.94
  Tirabrutinib/ctrl. rep. 2: 1.03
TMD8 cells; PIK3AP1 S759
  Tirabrutinib/ctrl. rep. 1: 0.83
  Tirabrutinib/ctrl. rep. 2: 0.69
TMD8 cells; PIK3AP1 T151
  Tirabrutinib/ctrl. rep. 1: 1.07
  Tirabrutinib/ctrl. rep. 2: 1.02
TMD8 cells; PIK3AP1 Y570
  Regulation of Phosphorylation Site: ↓
  Tirabrutinib/ctrl. rep. 1: 0.51
  Tirabrutinib/ctrl. rep. 2: 0.41
TMD8 cells; PLCG2 S160
  Tirabrutinib/ctrl. rep. 1: 0.86
  Tirabrutinib/ctrl. rep. 2: 1.09
TMD8 cells; PLCG2 S443
  Tirabrutinib/ctrl. rep. 1: 0.84
  Tirabrutinib/ctrl. rep. 2: 1.41
TMD8 cells; PLCG2 Y753
  Tirabrutinib/ctrl. rep. 1: 0.79
  Tirabrutinib/ctrl. rep. 2: 0.55
TMD8 cells; PRKCB S241
  Regulation of Phosphorylation Site: ↑
  Tirabrutinib/ctrl. rep. 1: 3.02
  Tirabrutinib/ctrl. rep. 2: 1.76
TMD8 cells; PRKCB S673
  Tirabrutinib/ctrl. rep. 1: 0.88
  Tirabrutinib/ctrl. rep. 2: 0.60
TMD8 cells; PRKCB T500
  Tirabrutinib/ctrl. rep. 1: 0.71
  Tirabrutinib/ctrl. rep. 2: 1.08
TMD8 cells; PRKCB T641
  Tirabrutinib/ctrl. rep. 1: 1.00
  Tirabrutinib/ctrl. rep. 2: 1.01
TMD8 cells; PRKCB T642
  Tirabrutinib/ctrl. rep. 1: 0.99
  Tirabrutinib/ctrl. rep. 2: 1.92
TMD8 cells; PRKD2 S198
  Tirabrutinib/ctrl. rep. 1: 0.55
  Tirabrutinib/ctrl. rep. 2: 0.69
TMD8 cells; PRKD2 S206
  Regulation of Phosphorylation Site: ↓
  Tirabrutinib/ctrl. rep. 1: 0.32
  Tirabrutinib/ctrl. rep. 2: 0.48
TMD8 cells; PRKD2 S214
  Regulation of Phosphorylation Site: ↓
  Tirabrutinib/ctrl. rep. 1: 0.46
  Tirabrutinib/ctrl. rep. 2: 0.48
TMD8 cells; PRKD2 S710
  Regulation of Phosphorylation Site: ↓
  Tirabrutinib/ctrl. rep. 1: 0.45
  Tirabrutinib/ctrl. rep. 2: 0.56
TMD8 cells; PRKD3 S31
  Tirabrutinib/ctrl. rep. 1: 0.76
  Tirabrutinib/ctrl. rep. 2: 0.85
TMD8 cells; PRKD3 S213
  Tirabrutinib/ctrl. rep. 1: 1.40
  Tirabrutinib/ctrl. rep. 2: 1.11
TMD8 cells; PRKD3 S364
  Tirabrutinib/ctrl. rep. 1: 0.98
  Tirabrutinib/ctrl. rep. 2: 0.97
TMD8 cells; PRKD3 S395
  Tirabrutinib/ctrl. rep. 1: 0.77
  Tirabrutinib/ctrl. rep. 2: 0.65
TMD8 cells; PRKD3 S735
  Regulation of Phosphorylation Site: ↓
  Tirabrutinib/ctrl. rep. 1: 0.41
  Tirabrutinib/ctrl. rep. 2: 0.43
TMD8 cells; RAF1 S1055
  Regulation of Phosphorylation Site: ↓
  Tirabrutinib/ctrl. rep. 1: 0.61
  Tirabrutinib/ctrl. rep. 2: 0.61
TMD8 cells; RELA S203
  Tirabrutinib/ctrl. rep. 1: 0.85
  Tirabrutinib/ctrl. rep. 2: 1.23
TMD8 cells; RELA S238
  Tirabrutinib/ctrl. rep. 1: 0.84
  Tirabrutinib/ctrl. rep. 2: 1.07
TMD8 cells; RPS6KA1 S230
  Tirabrutinib/ctrl. rep. 1: 0.93
  Tirabrutinib/ctrl. rep. 2: 0.89
TMD8 cells; RPS6KA1 S741
  Regulation of Phosphorylation Site: ↓
  Tirabrutinib/ctrl. rep. 1: 0.61
  Tirabrutinib/ctrl. rep. 2: 0.59
TMD8 cells; RPS6KA1 T234
  Tirabrutinib/ctrl. rep. 1: 0.93
  Tirabrutinib/ctrl. rep. 2: 0.96
TMD8 cells; TSC2 S1411
  Tirabrutinib/ctrl. rep. 1: 1.07
  Tirabrutinib/ctrl. rep. 2: 1.15
TMD8 cells; TSC2 S1418
  Tirabrutinib/ctrl. rep. 1: 1.12
  Tirabrutinib/ctrl. rep. 2: 1.10
TMD8 cells; TSC2 S1799
  Tirabrutinib/ctrl. rep. 1: 1.15
  Tirabrutinib/ctrl. rep. 2: 0.89
TMD8 cells; YBX1 S102
  Regulation of Phosphorylation Site: ↓
  Tirabrutinib/ctrl. rep. 1: 0.60
  Tirabrutinib/ctrl. rep. 2: 0.46
TMD8 cells; YBX1 S165
  Tirabrutinib/ctrl. rep. 1: 0.91
  Tirabrutinib/ctrl. rep. 2: 0.96
TMD8 cells; YBX1 S167
  Tirabrutinib/ctrl. rep. 1: 1.07

## C=CC(=O)N1CCC([C@@H]2CCNc3c(C(N)=O)c(-c4ccc(Oc5ccccc5)cc4)nn32)CC1 [Zanubrutinib]
PFPK5(P.falciparum)
  remaining activity at 0.3 µM: 100%
